Laboratory results from patent US20250236609A1, “VPS34 INHIBITORS AND METHODS OF USE THEREOF” (Deciphera Pharmaceuticals, LLC, priority 2023, published 2025).

Key:
VPS34 = VPS34 (Homo sapiens (Human), UniProt Q8NEB9); assay: Biochemical Assay for VPS34 (ADP-Glo kinase activity assay); conditions: 25 nM VPS34, 1 mM ATP, 1-hour incubation at 37° C.; read-out: VPS34 (Inhibition of biochemical activity of VPS34, IC50)
Experimental: Activity of VPS34 kinase was determined using an ADP-Glo kinase activity assay (Promega Corp). Assays were conducted in 384-well plates (5 μL assay volume) using 25 nM VPS34 (ThermoFisher Scientific), […] PI:3PS Lipid Kinase Substrate (Promega Corp.), and 1 mM ATP in kinase buffer. Inhibition of VPS34 was measured by adding serial diluted test compound (final assay concentration of 0.1% DMSO) followed by a 1-hour incubation at 37° C. ADP-Glo reagent was then added ([…]) followed by a 40 min incubation at rt. Kinase detection reagent was then added ([…]) and followed by a 60 min incubation at rt. Luminescence was then detected. The RLU at each compound concentration of was converted to percent inhibition using controls (i.e., reaction with no test compound and reaction with a known inhibitor) and IC50 values were calculated by fitting a four-parameter sigmoidal curve to the data using GeneData Screener software.
VPS34 Protein Sequence (Full Length with GST Tag)

PI3KC2α = PI3KC2α (Homo sapiens (Human), UniProt O00443); assay: Lipid kinase selectivity panel (Reaction Biology); assay type: biochemical; conditions: 1 μM compound, single dose duplicates, 10 μM ATP; read-out: Percent inhibition relative to DMSO control, PI3KC2α
Experimental: (§1) The compounds of the present invention were tested in a standard lipid kinase selectivity panel: 16 other lipid kinases (Reaction Biology, Malvern, PA, USA), under conditions of non-disclosure, non-dissemination, and non-use. In brief, compounds (see Table 2) were tested at in single dose duplicates at 1 μM against lipid kinases, including PI3Kα, PI3Kβ, and PI3Kδ, and reactions were carried out at 10 μM ATP.

PI3Kd (p110δ/p85α) = PI3Kd (p110δ/p85α) (Homo sapiens (Human), UniProt O00329); assay: Lipid kinase selectivity panel (Reaction Biology); assay type: biochemical; conditions: 1 μM compound, single dose duplicates, 10 μM ATP; read-out: Percent inhibition relative to DMSO control, PI3Kd (p110δ/p85α)
Sequence of PI3Kd (p110δ/p85α) (O00329 whole entry, species assumed): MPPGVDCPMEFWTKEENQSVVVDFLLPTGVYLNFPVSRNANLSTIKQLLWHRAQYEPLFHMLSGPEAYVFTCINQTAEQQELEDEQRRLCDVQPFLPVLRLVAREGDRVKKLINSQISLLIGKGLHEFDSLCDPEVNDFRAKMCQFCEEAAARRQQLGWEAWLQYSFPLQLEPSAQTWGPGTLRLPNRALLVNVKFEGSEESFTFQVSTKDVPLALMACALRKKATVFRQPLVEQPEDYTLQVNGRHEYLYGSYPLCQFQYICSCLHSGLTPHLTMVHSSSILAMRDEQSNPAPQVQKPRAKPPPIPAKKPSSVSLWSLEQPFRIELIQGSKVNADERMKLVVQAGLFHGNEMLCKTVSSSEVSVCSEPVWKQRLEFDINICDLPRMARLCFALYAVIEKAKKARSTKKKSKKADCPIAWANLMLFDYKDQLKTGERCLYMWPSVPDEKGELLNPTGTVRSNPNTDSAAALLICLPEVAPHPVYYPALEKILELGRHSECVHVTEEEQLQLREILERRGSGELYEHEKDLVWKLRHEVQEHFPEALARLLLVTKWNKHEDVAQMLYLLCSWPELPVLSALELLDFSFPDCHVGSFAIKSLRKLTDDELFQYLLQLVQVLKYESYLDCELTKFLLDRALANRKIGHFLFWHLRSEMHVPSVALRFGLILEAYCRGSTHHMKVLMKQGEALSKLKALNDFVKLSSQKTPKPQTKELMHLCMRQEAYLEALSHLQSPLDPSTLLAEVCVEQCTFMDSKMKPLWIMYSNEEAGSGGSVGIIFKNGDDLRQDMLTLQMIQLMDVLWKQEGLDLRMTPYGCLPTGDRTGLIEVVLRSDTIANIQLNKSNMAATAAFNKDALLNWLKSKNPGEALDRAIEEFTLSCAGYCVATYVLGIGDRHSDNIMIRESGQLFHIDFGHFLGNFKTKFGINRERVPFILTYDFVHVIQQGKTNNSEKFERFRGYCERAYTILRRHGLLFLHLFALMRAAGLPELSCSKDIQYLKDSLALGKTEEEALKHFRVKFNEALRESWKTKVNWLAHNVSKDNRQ
Sequence of PI3Kd (p110δ/p85α) (P27986 whole entry partner, species assumed): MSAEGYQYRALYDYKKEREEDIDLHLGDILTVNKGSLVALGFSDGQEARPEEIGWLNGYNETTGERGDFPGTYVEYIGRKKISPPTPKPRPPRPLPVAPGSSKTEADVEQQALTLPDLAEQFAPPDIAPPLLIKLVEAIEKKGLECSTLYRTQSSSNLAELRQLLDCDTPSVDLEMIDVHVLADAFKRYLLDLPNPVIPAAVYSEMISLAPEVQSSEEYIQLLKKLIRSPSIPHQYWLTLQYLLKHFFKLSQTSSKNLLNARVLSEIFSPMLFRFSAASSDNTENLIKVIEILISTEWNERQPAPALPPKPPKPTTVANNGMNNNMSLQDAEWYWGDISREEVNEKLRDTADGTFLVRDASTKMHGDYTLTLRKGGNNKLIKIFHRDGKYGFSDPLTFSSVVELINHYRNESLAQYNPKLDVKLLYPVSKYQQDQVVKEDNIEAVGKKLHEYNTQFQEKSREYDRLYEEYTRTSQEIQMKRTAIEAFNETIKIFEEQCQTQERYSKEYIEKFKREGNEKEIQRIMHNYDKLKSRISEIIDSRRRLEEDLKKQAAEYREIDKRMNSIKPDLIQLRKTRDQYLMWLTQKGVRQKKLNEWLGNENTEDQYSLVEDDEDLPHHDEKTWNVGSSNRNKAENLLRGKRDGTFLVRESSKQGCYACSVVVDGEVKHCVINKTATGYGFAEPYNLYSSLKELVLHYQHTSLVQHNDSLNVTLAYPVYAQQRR
Experimental: as §1

[1] = biological target: PI3K (p110α (E545K)/p85α) (Homo sapiens (Human), UniProt P42336, E545K); assay: Lipid kinase selectivity panel (Reaction Biology); assay type: biochemical; conditions: 1 μM compound, single dose duplicates, 10 μM ATP; read-out: Percent inhibition relative to DMSO control, PI3K (p110α (E545K)/p85α)
Experimental: as §1

PI3Kb (p110β/p85α) = PI3Kb (p110β/p85α) (Homo sapiens (Human), UniProt P42338); assay: Lipid kinase selectivity panel (Reaction Biology); assay type: biochemical; conditions: 1 μM compound, single dose duplicates, 10 μM ATP; read-out: Percent inhibition relative to DMSO control, PI3Kb (p110β/p85α)
Sequence of PI3Kb (p110β/p85α) (P42338 whole entry, species assumed): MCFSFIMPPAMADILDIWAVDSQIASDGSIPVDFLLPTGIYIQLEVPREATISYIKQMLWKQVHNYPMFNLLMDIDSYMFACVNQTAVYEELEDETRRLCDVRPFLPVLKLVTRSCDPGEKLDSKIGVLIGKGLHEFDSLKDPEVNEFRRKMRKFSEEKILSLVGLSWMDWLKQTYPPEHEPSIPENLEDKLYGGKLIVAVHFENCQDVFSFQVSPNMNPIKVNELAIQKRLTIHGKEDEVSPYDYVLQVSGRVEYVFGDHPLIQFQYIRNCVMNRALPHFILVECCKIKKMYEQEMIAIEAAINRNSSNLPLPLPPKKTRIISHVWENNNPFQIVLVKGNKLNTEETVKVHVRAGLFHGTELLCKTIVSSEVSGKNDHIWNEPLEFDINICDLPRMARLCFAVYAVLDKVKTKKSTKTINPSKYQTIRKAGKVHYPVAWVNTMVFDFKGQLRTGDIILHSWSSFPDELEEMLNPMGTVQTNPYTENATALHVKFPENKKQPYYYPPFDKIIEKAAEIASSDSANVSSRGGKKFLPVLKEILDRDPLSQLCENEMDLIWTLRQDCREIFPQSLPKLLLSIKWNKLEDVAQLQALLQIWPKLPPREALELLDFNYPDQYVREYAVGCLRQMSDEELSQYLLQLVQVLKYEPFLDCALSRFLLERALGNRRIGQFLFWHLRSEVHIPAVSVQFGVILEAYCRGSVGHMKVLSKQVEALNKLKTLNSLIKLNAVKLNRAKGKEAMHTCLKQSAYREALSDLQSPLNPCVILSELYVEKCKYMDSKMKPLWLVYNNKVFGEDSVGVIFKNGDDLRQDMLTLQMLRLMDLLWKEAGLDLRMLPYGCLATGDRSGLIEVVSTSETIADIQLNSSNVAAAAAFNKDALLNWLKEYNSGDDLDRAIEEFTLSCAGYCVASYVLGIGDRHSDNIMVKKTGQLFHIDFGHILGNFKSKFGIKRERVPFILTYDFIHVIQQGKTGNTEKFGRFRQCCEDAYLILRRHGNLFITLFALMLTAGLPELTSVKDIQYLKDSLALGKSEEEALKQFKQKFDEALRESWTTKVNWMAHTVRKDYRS
Sequence of PI3Kb (p110β/p85α) (P27986 whole entry partner, species assumed): as the sequence (P27986 whole entry partner, species assumed) above
Experimental: as §1

[2] = biological target: PI3K (p110α (E542K)/p85α) (Homo sapiens (Human), UniProt P42336, E542K); assay: Lipid kinase selectivity panel (Reaction Biology); assay type: biochemical; conditions: 1 μM compound, single dose duplicates, 10 μM ATP; read-out: Percent inhibition relative to DMSO control, PI3K (p110α (E542K)/p85α)
Experimental: as §1

[3] = biological target: PI3K (p110α (H1047R)/p85α) (Homo sapiens (Human), UniProt P42336, H1047R); assay: Lipid kinase selectivity panel (Reaction Biology); assay type: biochemical; conditions: 1 μM compound, single dose duplicates, 10 μM ATP; read-out: Percent inhibition relative to DMSO control, PI3K (p110α (H1047R)/p85α)
Sequence of PI3K (p110α (H1047R)/p85α) (P42336 whole entry H1047R): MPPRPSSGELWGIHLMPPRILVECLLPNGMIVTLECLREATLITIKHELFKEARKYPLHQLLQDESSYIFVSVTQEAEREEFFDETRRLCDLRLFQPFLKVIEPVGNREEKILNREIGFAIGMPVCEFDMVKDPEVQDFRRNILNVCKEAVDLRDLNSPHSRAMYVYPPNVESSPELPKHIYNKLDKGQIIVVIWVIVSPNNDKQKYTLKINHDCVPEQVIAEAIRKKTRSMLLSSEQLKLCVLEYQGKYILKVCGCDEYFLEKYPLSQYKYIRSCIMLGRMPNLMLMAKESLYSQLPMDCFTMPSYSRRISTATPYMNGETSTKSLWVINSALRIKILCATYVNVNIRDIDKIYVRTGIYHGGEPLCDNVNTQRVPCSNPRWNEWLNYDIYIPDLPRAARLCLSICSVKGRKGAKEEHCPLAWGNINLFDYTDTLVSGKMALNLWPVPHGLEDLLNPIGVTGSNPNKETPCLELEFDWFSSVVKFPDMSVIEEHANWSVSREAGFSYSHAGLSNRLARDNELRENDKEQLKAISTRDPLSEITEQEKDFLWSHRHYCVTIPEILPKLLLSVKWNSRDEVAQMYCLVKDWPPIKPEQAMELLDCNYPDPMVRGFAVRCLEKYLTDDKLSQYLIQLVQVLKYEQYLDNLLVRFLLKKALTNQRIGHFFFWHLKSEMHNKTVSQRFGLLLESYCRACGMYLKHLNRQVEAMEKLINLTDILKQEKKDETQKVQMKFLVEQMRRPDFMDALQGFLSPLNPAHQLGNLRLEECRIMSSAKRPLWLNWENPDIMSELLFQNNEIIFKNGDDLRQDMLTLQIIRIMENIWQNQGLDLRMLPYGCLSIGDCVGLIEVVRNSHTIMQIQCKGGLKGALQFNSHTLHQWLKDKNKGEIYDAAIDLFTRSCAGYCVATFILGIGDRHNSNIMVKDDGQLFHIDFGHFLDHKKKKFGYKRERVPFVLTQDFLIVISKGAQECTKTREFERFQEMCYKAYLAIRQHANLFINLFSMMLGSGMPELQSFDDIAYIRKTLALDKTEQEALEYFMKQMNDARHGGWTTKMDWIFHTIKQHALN
Sequence of PI3K (p110α (H1047R)/p85α) (P27986 whole entry partner): as the sequence (P27986 whole entry partner, species assumed) above
Experimental: as §1

PI3K (p110α/p65α) = PI3K (p110α/p65α) (Homo sapiens (Human), UniProt P42336); assay: Lipid kinase selectivity panel (Reaction Biology); assay type: biochemical; conditions: 1 μM compound, single dose duplicates, 10 μM ATP; read-out: Percent inhibition relative to DMSO control, PI3K (p110α/p65α)
Experimental: as §1

PI3Kα (p110α/p85α) = PI3Kα (p110α/p85α) (Homo sapiens (Human), UniProt P42336); assay: Lipid kinase selectivity panel (Reaction Biology); assay type: biochemical; conditions: 1 μM compound, single dose duplicates, 10 μM ATP; read-out: Percent inhibition relative to DMSO control, PI3Kα (p110α/p85α)
Experimental: as §1

PI3Kg (p110γ) = PI3Kg (p110γ) (Homo sapiens (Human), UniProt P48736); assay: Lipid kinase selectivity panel (Reaction Biology); assay type: biochemical; conditions: 1 μM compound, single dose duplicates, 10 μM ATP; read-out: Percent inhibition relative to DMSO control, PI3Kg (p110γ)
Sequence of PI3Kg (p110γ) (P48736 whole entry, species assumed): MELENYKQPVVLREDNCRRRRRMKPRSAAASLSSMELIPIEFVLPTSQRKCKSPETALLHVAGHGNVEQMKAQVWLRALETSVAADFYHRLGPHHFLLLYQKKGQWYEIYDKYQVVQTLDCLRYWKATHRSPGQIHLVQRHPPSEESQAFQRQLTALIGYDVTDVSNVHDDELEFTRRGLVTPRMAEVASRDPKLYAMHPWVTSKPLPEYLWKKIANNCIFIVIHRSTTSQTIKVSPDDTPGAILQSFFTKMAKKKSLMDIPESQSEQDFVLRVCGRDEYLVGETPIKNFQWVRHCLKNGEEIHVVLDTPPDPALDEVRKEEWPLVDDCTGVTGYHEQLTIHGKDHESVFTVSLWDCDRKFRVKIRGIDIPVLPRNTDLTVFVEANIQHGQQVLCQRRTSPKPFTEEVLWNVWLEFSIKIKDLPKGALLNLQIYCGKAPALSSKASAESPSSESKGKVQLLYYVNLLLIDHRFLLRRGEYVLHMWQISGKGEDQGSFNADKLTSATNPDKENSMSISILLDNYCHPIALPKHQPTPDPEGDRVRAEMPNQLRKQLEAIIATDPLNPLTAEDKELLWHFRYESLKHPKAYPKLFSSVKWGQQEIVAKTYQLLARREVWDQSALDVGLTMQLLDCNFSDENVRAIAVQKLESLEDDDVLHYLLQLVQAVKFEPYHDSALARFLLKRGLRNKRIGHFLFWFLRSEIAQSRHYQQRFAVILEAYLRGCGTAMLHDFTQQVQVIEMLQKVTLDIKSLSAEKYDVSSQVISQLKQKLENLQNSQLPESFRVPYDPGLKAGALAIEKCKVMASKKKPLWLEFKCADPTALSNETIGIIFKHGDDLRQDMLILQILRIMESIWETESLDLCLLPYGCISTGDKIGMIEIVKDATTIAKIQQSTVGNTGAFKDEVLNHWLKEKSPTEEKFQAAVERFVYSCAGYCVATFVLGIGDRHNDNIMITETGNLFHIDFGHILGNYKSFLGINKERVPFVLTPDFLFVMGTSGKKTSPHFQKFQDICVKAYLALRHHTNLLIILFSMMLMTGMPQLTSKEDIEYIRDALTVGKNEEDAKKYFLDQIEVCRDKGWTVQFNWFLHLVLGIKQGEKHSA
Experimental: as §1

IC50 (VPS34) [µM]	inhibition at 1 µM (PI3KC2α) [%]	inhibition at 1 µM (PI3Kd (p110δ/p85α)) [%]	inhibition at 1 µM [1] [%]	inhibition at 1 µM (PI3Kb (p110β/p85α)) [%]	inhibition at 1 µM [2] [%]	inhibition at 1 µM [3] [%]	inhibition at 1 µM (PI3K (p110α/p65α)) [%]	inhibition at 1 µM (PI3Kα (p110α/p85α)) [%]	inhibition at 1 µM (PI3Kg (p110γ)) [%]	Structure (SMILES)
0.1 to 0.5	3	6	-5	0	-20	-3	-3	-31	-10	Cc1cnc(NC(=O)OC2CC3(CNC3)C2)cc1-c1cc(N2CCCC[C@@H]2C(F)(F)F)[nH]c(=O)c1 [Example 28]
≤ 0.1	4	52	24	18	16	23	19	24	66	Cc1nccc(Nc2cc(-c3cc(-c4cccnc4C(F)(F)F)[nH]c(=O)c3)c(C)cn2)n1 [Example 38]
≤ 0.1	2	17	28	11	33	22	24	30	65	Cc1nccc(Nc2cc(-c3cc(N4CCCC[C@@H]4C(F)(F)F)[nH]c(=O)c3)c(C)cn2)n1 [Example 77]
0.1 to 0.5	-3	10	12	14	14	8	15	20	30	COC(=O)Nc1cc(-c2cc(-c3cccnc3C(F)(F)F)[nH]c(=O)c2)c(C)cn1 [Example 78]
